Calls of active or inactive are those of the source.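 The calls were made as follows: active = dose-dependent response absent in non-induced cells, with a sigmoidal fit giving a valid half-maximal concentration; inactive = the rest.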

Usually IC50 stands for the point on the concentration scale where inhibition reaches its midpoint.

This assay has as its target Chromaffin granule amine transporter (Homo sapiens) (UniProt P54219). The assay can be described thus: SLC18A1 vesicular uptake inhibitors, dose response, FFN206 fluorescent substrate, HEK-293 overexpressing cells (AID 1794818). The conditions noted are these: HEK-293 SLC18A1 OE, FFN206 uptake fluorescence.

Chromaffin granule amine transporter (Homo sapiens), sequence (P54219 whole entry, looked up): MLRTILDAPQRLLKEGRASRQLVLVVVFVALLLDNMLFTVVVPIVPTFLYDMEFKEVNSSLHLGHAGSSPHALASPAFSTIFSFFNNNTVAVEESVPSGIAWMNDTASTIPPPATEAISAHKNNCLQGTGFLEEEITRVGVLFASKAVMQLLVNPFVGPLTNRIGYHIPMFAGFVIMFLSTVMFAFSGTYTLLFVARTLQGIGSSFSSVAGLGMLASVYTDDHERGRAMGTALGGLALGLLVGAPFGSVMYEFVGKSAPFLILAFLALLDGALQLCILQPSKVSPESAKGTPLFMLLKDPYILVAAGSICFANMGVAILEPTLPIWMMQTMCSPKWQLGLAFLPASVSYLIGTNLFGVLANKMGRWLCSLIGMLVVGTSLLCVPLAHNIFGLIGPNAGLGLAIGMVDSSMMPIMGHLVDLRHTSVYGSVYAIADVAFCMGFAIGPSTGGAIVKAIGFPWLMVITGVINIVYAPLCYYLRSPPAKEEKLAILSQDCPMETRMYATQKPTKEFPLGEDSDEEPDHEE

With `CNc1ccc2c(CCN)cc(=O)oc2c1`, the IC50 is 2000 nM.
The same measure, in the same setting: the result for `COC(=O)[C@H]1[C@H]2C[C@@H]3c4[nH]c5cc(OC)ccc5c4CCN3C[C@H]2C[C@@H](OC(=O)c2cc(OC)c(OC)c(OC)c2)[C@@H]1OC` reads 50 nM.
With `COc1cc2c(cc1OC)C1CC(=O)C(CC(C)C)CN1CC2` (stereo not drawn), the result was inactive.
